Source: patent US20260108527A1, “POLO LIKE KINASE 4 INHIBITORS” (ORIC Pharmaceuticals, Inc., priority 2022, published 2026)

Target: T1, human recombinant Aurora A (Homo sapiens, UniProt O14965)
T1 construct: purchased ThermoFisher PR5935A
T1 sequence (O14965 1-403): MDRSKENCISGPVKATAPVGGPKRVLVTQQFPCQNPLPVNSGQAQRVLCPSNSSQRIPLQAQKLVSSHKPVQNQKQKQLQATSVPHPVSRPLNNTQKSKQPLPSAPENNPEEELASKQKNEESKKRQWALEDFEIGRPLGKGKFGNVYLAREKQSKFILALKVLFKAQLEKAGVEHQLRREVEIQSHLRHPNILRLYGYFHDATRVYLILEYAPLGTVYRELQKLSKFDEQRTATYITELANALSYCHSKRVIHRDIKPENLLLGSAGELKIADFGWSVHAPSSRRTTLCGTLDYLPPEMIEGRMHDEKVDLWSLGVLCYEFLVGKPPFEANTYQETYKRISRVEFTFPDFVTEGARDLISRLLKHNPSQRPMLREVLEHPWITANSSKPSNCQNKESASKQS
Assay: Aurora A Kinase Biochemical Assay (ADP-Glo)
Settings: selectivity ratio; Aurora A 2.5 nM, 20 μM ATP
Description: Activity of human recombinant Aurora A (ThermoFisher, cat #PR5935A) was measured by quantification of adenosine diphosphate (ADP) using the ADP-Glo Kinase Assay Kit (Promega, cat #V9102). Test compounds were solubilized in dimethyl sulfoxide (DMSO) and dispensed into 384-well white polystyrene nonbinding plates (Greiner, cat #781094) using the Echo acoustic dispenser (Labcyte Inc.) in a 11-point 3-fold titration in duplicates. 5 μL of 5.0 nM Aurora A in assay buffer (50 mM HEPES, pH 7.5, 0.01% Brij-35, 0.01% BSA, 10 mM MgCl2, 1 mM EGTA, 1 mM DTT) was added to the plates. Test compounds and Aurora A were incubated for 15 minutes at room temperature (RT). Then 5 μL of a 40 μM adenosine triphosphate (ATP) (Promega, cat #V915B) and 9.3 μM Myelin Basic Protein (MBP) (SignalChem, cat #M42-51N) substrate solution in assay buffer was added and the reaction mixture was incubated for 2 hours at RT. The final concentration of Aurora A, ATP and MBP in the reactions were 2.5 nM, 20 μM and 4.7 μM, respectively. Reactions were stopped and the remaining ATP depleted by adding 10 μL of ADP-Glo reagent (Promega, cat #V912B) and incubating for 40 minutes at RT. The simultaneous conversion of the remaining ADP to ATP and measurement of the newly synthesized ATP was achieved by addition of 20 μL Kinase Detection reagent (Promega, cat #V914B), incubation for 30 min at RT, and luminescence detection using the EnVision plate reader (PerkinElmer). Reactions lacking Aurora A were used as 100% inhibition controls. Reactions containing DMSO alone were used as 0% inhibition controls. The IC50 values reported in Table 2 were determined using four parameter non-linear regression curve fit.

[Aurora A IC50 (nM)]/[PLK4 IC50 (nM)] | Structure (SMILES)
702.5 | CCOc1cnc(-c2nccs2)nc1Nc1n[nH]c2cc([C@@H]3C[C@@]34C(=O)Nc3ccc(OC)cc34)ccc12 [Example 44, (1R,2S)-2-(3-{[5-ethoxy-2-(1,3-thiazol-2-yl)pyrimidin-4-yl]amino}-1H-indazol-6-yl)-5′-methoxyspiro[cyclopropane-1,3′-indol]-2′(1′H)-one]
288.4 | COc1ccc2c(c1)[C@]1(C[C@H]1c1ccc3c(Nc4nc(-c5cnco5)ncc4OC)n[nH]c3c1)C(=O)N2 [Example 40, (1R,2S)-5′-methoxy-2-(3-{[5-methoxy-2-(1,3-oxazol-5-yl)pyrimidin-4-yl]amino}-1H-indazol-6-yl)spiro[cyclopropane-1,3′-indol]-2′(1′H)-one]
360 | COc1ccc2c(c1)[C@]1(C[C@H]1c1ccc3c(Nc4nc(-c5ncco5)cnc4OC)n[nH]c3c1)C(=O)N2 [Example 19, (1R,2S)-5′-methoxy-2-(3-{[3-methoxy-6-(1,3-oxazol-2-yl)pyrazin-2-yl]amino}-1H-indazol-6-yl)spiro[cyclopropane-1,3′-indol]-2′(1′H)-one]
916.8947 | COc1ccc2c(c1)[C@]1(C[C@H]1c1ccc3c(Nc4cc(-c5ccsn5)ccc4OC)n[nH]c3c1)C(=O)N2 [Example 30, (1R,2S)-5′-methoxy-2-{3-[2-methoxy-5-(1,2-thiazol-3-yl)anilino]-1H-indazol-6-yl}spiro[cyclopropane-1,3′-indol]-2′(1′H)-one]
1135 | CCOc1ccc(-c2nccs2)nc1Nc1n[nH]c2cc([C@@H]3C[C@@]34C(=O)Nc3ccc(OC)cc34)ccc12 [Example 28, (1R,2S)-2-(3-{[3-ethoxy-6-(1,3-thiazol-2-yl)pyridin-2-yl]amino}-1H-indazol-6-yl)-5′-methoxyspiro[cyclopropane-1,3′-indol]-2′(1′H)-one]
2540.3949 | CCOc1cc(-n2cncn2)ccc1Nc1n[nH]c2cc([C@@H]3C[C@@]34C(=O)Nc3ccc(OC)cc34)ccc12 [Example 10, (1R,2S)-2-{3-[2-ethoxy-4-(1H-1,2,4-triazol-1-yl)anilino]-1H-indazol-6-yl}-5′-methoxyspiro[cyclopropane-1,3′-indol]-2′(1′H)-one]
630 | CCOc1cc2c(ccc[n+]2[O-])cc1Nc1n[nH]c2cc([C@@H]3C[C@@]34C(=O)Nc3ccc(OC)cc34)ccc12 [Example 12, 7-ethoxy-6-((6-((1R,2S)-5′-methoxy-2′-oxospiro[cyclopropane-1,3′-indolin]-2-yl)-1H-indazol-3-yl)amino)quinoline 1-oxide]
170 | COc1ccc2c(c1)[C@]1(C[C@H]1c1ccc3c(Nc4nc(N(C)C)ncc4OC)n[nH]c3c1)C(=O)N2 [Example 20, (1R,2S)-2-(3-{[2-(dimethylamino)-5-methoxypyrimidin-4-yl]amino}-1H-indazol-6-yl)-5′-methoxyspiro[cyclopropane-1,3′-indol]-2′(1′H)-one]
842.4019 | COc1ccc2c(c1)[C@]1(C[C@H]1c1ccc3c(Nc4nc(-c5cnn(C)c5)cnc4OC)n[nH]c3c1)C(=O)N2 [Example 24, (1R,2S)-5′-methoxy-2-(3-{[3-methoxy-6-(1-methyl-1H-pyrazol-4-yl)pyrazin-2-yl]amino}-1H-indazol-6-yl)spiro[cyclopropane-1,3′-indol]-2′(1′H)-one]
187.4804 | COc1ccc2c(c1)[C@]1(C[C@H]1c1ccc3c(Nc4cc(-c5nccs5)ccc4OC)n[nH]c3c1)C(=O)N2 [Example 14, (1R,2S)-5′-methoxy-2-{3-[2-methoxy-5-(1,3-thiazol-2-yl)anilino]-1H-indazol-6-yl}spiro[cyclopropane-1,3′-indol]-2′(1′H)-one]
414.8 | COc1ccc2c(c1)[C@]1(C[C@H]1c1ccc3c(Nc4cc(-c5ncco5)ccc4OC)n[nH]c3c1)C(=O)N2 [Example 13, (1R,2S)-5′-methoxy-2-{3-[2-methoxy-5-(1,3-oxazol-2-yl)anilino]-1H-indazol-6-yl}spiro[cyclopropane-1,3′-indol]-2′(1′H)-one]

The remaining lines, values behind:

Structure (SMILES) | [Aurora A IC50 (nM)]/[PLK4 IC50 (nM)]
CCOc1cc(S(C)(=O)=O)ccc1Nc1n[nH]c2cc([C@@H]3C[C@@]34C(=O)N(C)c3ccc(OC)cc34)ccc12 [Example 23, (1R,2S)-2-{3-[2-ethoxy-4-(methanesulfonyl)anilino]-1H-indazol-6-yl}-5′-methoxy-1′-methylspiro[cyclopropane-1,3′-indol]-2′(1′H)-one] | 2258.3629
COc1ccc2c(c1)[C@]1(C[C@H]1c1ccc3c(Nc4cc5c(cc4OC)S(=O)(=O)CC5)n[nH]c3c1)C(=O)N2 [Example 1, 6-methoxy-5-({6-[(1R,2S)-5′-methoxy-2′-oxo-1′,2′-dihydrospiro[cyclopropane-1,3′-indol]-2-yl]-1H-indazol-3-yl}amino)-2,3-dihydro-1H-1-benzothiophene-1,1-dione] | 2164
COc1ccc2c(c1)[C@]1(C[C@H]1c1ccc3c(Nc4cc(-c5cnn(CC(F)F)c5)cnc4OC)n[nH]c3c1)C(=O)N2 [Example 46, (1R,2S)-2-(3-((5-(1-(2,2-difluoroethyl)-1H-pyrazol-4-yl)-2-methoxypyridin-3-yl)amino)-1H-indazol-6-yl)-5′-methoxyspiro[cyclopropane-1,3′-indolin]-2′-one] | 469.9759
COc1ccc2c(c1)[C@]1(C[C@H]1c1ccc3c(Nc4cc(-c5cocn5)cnc4OC)n[nH]c3c1)C(=O)N2 [Example 42, (1R,2S)-5′-methoxy-2-(3-{[2-methoxy-5-(1,3-oxazol-4-yl)pyridin-3-yl]amino}-1H-indazol-6-yl)spiro[cyclopropane-1,3′-indol]-2′(1′H)-one] | 157.8304
COc1ccc2c(c1)[C@]1(C[C@H]1c1ccc3c(Nc4cc(-c5cnn(C)c5)ncc4OC)n[nH]c3c1)C(=O)N2 [Example 27, (1R,2S)-5′-methoxy-2-(3-{[5-methoxy-2-(1-methyl-1H-pyrazol-4-yl)pyridin-4-yl]amino}-1H-indazol-6-yl)spiro[cyclopropane-1,3′-indol]-2′(1′H)-one] | 360.5487
COc1ccc2c(c1)[C@]1(C[C@H]1c1ccc3c(Nc4cc(-c5cnn(C)c5)ccc4OC)n[nH]c3c1)C(=O)N2 [Example 11, (1R,2S)-5′-methoxy-2-{3-[2-methoxy-5-(1-methyl-1H-pyrazol-4-yl)anilino]-1H-indazol-6-yl}spiro[cyclopropane-1,3′-indol]-2′(1′H)-one] | 897.6923
CCS(=O)(=O)c1ccc(Nc2n[nH]c3cc([C@@H]4C[C@@]45C(=O)Nc4ccc(OC)cc45)ccc23)c(OC)c1 [Example 5, (1R,2S)-2-{3-[4-(ethanesulfonyl)-2-methoxyanilino]-1H-indazol-6-yl}-5′-methoxyspiro[cyclopropane-1,3′-indol]-2′(1′H)-one] | 567.6936
COc1ccc2c(c1)[C@]1(C[C@H]1c1ccc3c(Nc4cc(-c5cnco5)ccc4OC)n[nH]c3c1)C(=O)N2 [Example 18, (1R,2S)-5′-methoxy-2-{3-[2-methoxy-5-(1,3-oxazol-5-yl)anilino]-1H-indazol-6-yl}spiro[cyclopropane-1,3′-indol]-2′(1′H)-one] | 500
